A short description of series [1]: Cytotoxicity assay (CellTiter-Glo), HUVEC. In kind it is cell-based. The conditions noted are these: human, HUVECs; concentrations up to 50 µM; read-out: Cytotoxic effect HUVEC IC50. How it is done:
Cytotoxicity was analyzed using a CellTiter-Glo Luminescent Cell Viability Assay Kit (Promega), according to the manufacturer’s protocol. Briefly, cells were cultured at a density of 10^4 to 10^5 cells/well with different concentrations of test compounds (final concentration of DMSO was 1%) for the indicated periods of time (2, 12, or 24 h) at 37°C and 5% CO2. Following treatment, substrate was added to the cells, and the samples were analyzed with a Fluoroscan Ascent FL microplate reader.

For another series, the system named is CIA in DBA1/J mice. Put plainly: Collagen-induced arthritis (CIA), clinical score and histopathology. Format: in vivo. Conditions: 30 mg/kg i.p. daily; for CIA joint histopathology: day 8 to 42, vs saline; for CIA symptoms (clinical score): day 8 to 42, vs vehicle. How it is done: DBA1/J male mice (6–8 weeks) were obtained from The Jackson Laboratories (Bar Harbor, ME, USA). All animal experiments were performed in accordance with National Institutes of Health guidelines and approved by the Montana State University Institutional Animal Care and Use Committee.
To induce CIA in DBA1/J mice, immunization-grade bovine Type II collagen (CII) (Chondrex, Redmond, WA, USA) was solubilized in 0.05 M acetic acid (2 mg/ml), and 100 μg of CII emulsified in complete Freund’s adjuvant containing 4 mg/ml Mycobacterium tuberculosis (Chondrex) were injected subcutaneously (s.c.) in the tail ([Kochetkova et al., 2010]).
Mice were scored using a scale of 0 to 3 for each limb, with a maximal total score of 12, as previously described ([Schepetkin et al., 2015]): 0, no signs of inflammation; 1, mild redness or swelling of single digits; 2, significant swelling of ankle or wrist with erythema; and 3, severe swelling and erythema of multiple joints.
At 44 days after CII injection (CIA) or 14 days after anti-CII antibody injection (CAIA), the mice were euthanized, and their hind limbs were collected and fixed in 10% neutral buffered formalin. The limbs were decalcified in 5% formic acid for 3 to 6 days, and the joints were embedded in paraffin. Eight 8-μm sections were cut using a sagittal projection with 40 µm spacing of the cuts. Hematoxylin and eosin (H&E) and toluidine blue (TB) staining were performed for each sample.
H&E histopathological scores for the joints were determined by using a graded scale ([Schramm et al., 2004]), separately for cartilage destruction, pannus formation, and synovial cells changes. For cartilage destruction, the scale was: 0—normal, superficial zone is smooth; 1—superficial fibrillations, some loss of surface lamina; 2—vertical clefts/erosion to the calcified cartilage up to 25% of the surface; 3—vertical clefts/erosion to the calcified cartilage more than 25% of the surface, severe chondrocytes, and cartilage matrix loss with new bone tissue substitution, bone destruction. […] All sections of the hind paws and knee joints were examined, the highest score was recorded, with a total maximum score of 36 possible per mouse. The loss of the proteoglycans and cartilage degeneration was also scored in TB-stained sections on a graded scale of 0–3, as previously described ([Bernotiene et al., 2004]): 0—no cartilage loss; 1 – minimal chondrocytes and proteoglycan loss in superficial zone; 2—moderate chondrocytes and proteoglycan loss into middle zone but above tidemark; and 3—severe cartilage degeneration through tidemark, with the maximum score of 12 possible per mouse.

Another series relates to CAIA in BALB/c mice. Put plainly: Collagen-antibody-induced arthritis (CAIA), clinical score and histopathology. In kind it is in vivo. Conditions: for CAIA joint histopathology / severity of CAIA (mean arthritis score): 30 mg/kg i.p. daily; for CAIA joint histopathology: day 1 to 9, vs saline; for severity of CAIA (mean arthritis score): day 1 to 9, vs vehicle; for therapeutic effect in CAIA compared to IQ-1S: 30 mg/kg i.p., days 6 and 7. As for the experimental part: CAIA was induced in 7- to 8-week-old BALB/c mice from Charles River Laboratories (Wilmington, MA, USA) by i.p. injection of a cocktail of monoclonal anti-CII antibodies (Chondrex; 1.5 mg/mouse) on day 0, followed by i.p. lipopolysaccharide (LPS) injection (30 μg LPS from Escherichia coli strain 0111:B4 in PBS) on day 3. Control animals received an equal volume of PBS.
Arthritis development was evaluated daily for 10 days post-injection of the monoclonal antibody cocktail. Arthritis symptoms were scored on scale of 0 to 4 in accordance with the Chondrex Mouse Arthritis Scoring System in a blinded manner, as follows: 0, no signs of inflammation; 1, mild redness or swelling of single joint (one of the interphalangeal joints, metacarpophalangeal joints, carpal joint for the front paw, and tarsal joint for the hind); 2, two joints have redness and swelling; 3, all three joint types have redness and swelling; 4, maximal redness and swelling of entire paw leads to the disappearance of anatomical definition.
In CAIA, animals were sacrificed on day 14, and their forward and hind limbs were processed as described above. Three sections in the sagittal projection of joints, 40 µm apart, were examined by the same system with the grades ranging 0 to 4. Total H&E histopathological score for three sections included cartilage destruction, pannus formation, and synovial cells changes. For cartilage destruction, the scale was: 0—normal, superficial zone is smooth; 1—superficial fibrillations, some loss of surface lamina; 2—vertical clefts/erosion to the calcified cartilage up to 25% of the surface; 3—vertical clefts/erosion to the calcified cartilage 25% to 50% of the surface, 4—vertical clefts/erosion to the calcified cartilage more than 50% of the surface, severe chondrocytes, and cartilage matrix loss with new bone tissue substitution. For pannus formation the scale was: 0—normal; 1—exudate in the joint; 2—single inflammatory cells in the exudate; 3—mild infiltration of the inflammatory cells; 4—heavy inflammatory infiltration and debris in the joint. For synovial membrane changes the scale was: 0 – normal, 1 to 2 layer of synovial lining cells; 1—initial hyperplasia of the cells and increased number of lining cells layers; 2—increased number of lining cell layers, more than 3 to 4 layers and/or proliferation of sub-synovial tissue; 3—more than 4 layers of lining cells, focal infiltration of inflammatory cells, proliferation of subsynovial tissue; 4—more than four layers of lining cells, diffused infiltration of inflammatory cells, proliferation of sub-synovial tissue.

The subject of a further series is LN cells from CIA mice. Put plainly: CII-induced cytokine production by LN cells from treated CIA mice. The conditions noted are these: 30 mg/kg; for IL-10 production by LN cells / proinflammatory cytokines (IL-1β, IL-5, IL-6, IL-17A, TNF, GM-CSF, RANKL) by LN cells: cells cultured 72 h with CII, vs saline. In kind it is in vivo. As for the experimental part: At the end of the study (day 44), we isolated the axillary, inguinal, and popliteal LN and purified mononuclear cells from the LN. These cells were cultured in 6-well plates (5 × 10^6 cells/ml) without or with 50 μg/ml CII for 3 days in RPMI-1640 medium supplemented with 10% of fetal bovine serum (FBS) (Invitrogen, Carlsbad, CA, USA), 2 mM l-glutamine, 100 U/ml penicillin, 100 μg/ml streptomycin, 1 mM sodium pyruvate, and 0.1 mM nonessential amino acids ([Kochetkova et al., 2008]). The levels of cytokines, including tumor necrosis factor (TNF), granulocyte-macrophage colony-stimulating factor (GM-CSF), IL-1β, IL-5, IL-6, IL-10, IL-17A, and receptor activator of nuclear factor-κB ligand (RANKL) were measured in LN culture supernatants using ELISA kits (BD Biosciences, San Jose, CA, USA) for mouse cytokines.

SMILES strings stand for the structures. Some results are limits rather than exact numbers.

As for `O=C1c2ccccc2-n2c1nc1ccccc1c2=O` [TRYP, indolo[2,1-b]quinazolin-6,12-dione], in series [1], the IC50 amounted to 13.8 ± 1.5 µM. In addition, in the series on CIA in DBA1/J mice, the CIA joint histopathology result was “little cartilage erosion, synovial hyperplasia, or cellular infiltration” and the “CIA symptoms (clinical score)” value is given as “significant reductions in CIA symptoms”. Moreover, in the series with CAIA in BALB/c mice, the CAIA joint histopathology result was “little cartilage erosion, synovial hyperplasia, or cellular infiltration”; the “severity of CAIA (mean arthritis score)” value is on record as “significant reductions in the severity of CAIA”; the “therapeutic effect in CAIA compared to IQ-1S” value is on record as “significantly greater”. In the series on LN cells from CIA mice, the “IL-10 production by LN cells” value was “higher” and the “proinflammatory cytokines (IL-1β, IL-5, IL-6, IL-17A, TNF, GM-CSF, RANKL) by LN cells” value is listed as “significantly reduced”.
Take `O=c1c2ccccc2nc2n1-c1ccccc1/C2=N/O` [TRYP-Ox, tryptanthrin-6-oxime]: the IC50 in series [1] was more than 50 µM. In the series on CIA in DBA1/J mice, the CIA joint histopathology entry is “little cartilage erosion, synovial hyperplasia, or cellular infiltration” and the “CIA symptoms (clinical score)” value is on record as “significant reductions in CIA symptoms”. Also, in the series on CAIA in BALB/c mice, the CAIA joint histopathology result was “little cartilage erosion, synovial hyperplasia, or cellular infiltration”; the “severity of CAIA (mean arthritis score)” value is recorded as “significant reductions in the severity of CAIA”; the “therapeutic effect in CAIA compared to IQ-1S” value is on record as “significantly greater”. In the series on LN cells from CIA mice, the “IL-10 production by LN cells” value was “higher” and the “proinflammatory cytokines (IL-1β, IL-5, IL-6, IL-17A, TNF, GM-CSF, RANKL) by LN cells” value is recorded as “significantly reduced”. The “IL-17A, GM-CSF and RANKL production by LN cells” value in the series with LN cells from CIA mice (compared to mice treated with TRYP) is listed as “significantly lower”.

These data come from article PMC7394103 (Frontiers in Pharmacology, 2020).
